# Experimental data: patent publication US12577242B2, “Pyrrolopyridine and imidazopyridine antiviral compounds” (KATHOLIEKE UNIVERSITEIT LEUVEN, priority 2020, dated 2026)
# Columns and labels:
# [1] = system: classical swine fever virus (CSFV) strain Alfort 187; assay: microbe, parasite or virus in culture; format: cell-based; conditions: PK-15, in Sus scrofa, 48 h
# [2] = Cytotoxicity in MDBK cells (no BVD virus added); conditions: bovine, MDBK cells (Madin-Darby bovine kidney), no virus added
# [3] = system: Bovine viral diarrhea (BVD) virus; assay: Anti-BVDV CPE inhibition assay in MDBK cells; conditions: for SI (selectivity index, ratio of CC50 and EC50): CC50/EC50, MDBK cells, BVD virus
# [4] = system: BVDV type 2 strain 1373; conditions: 5 mg/kg i.v. 2x daily; for Animals showing signs of dehydration / Samples virus isolation positive for BVDV in total / Adverse side effects on serial complete blood cell counts or serum chemistry panels / Period in which leukopenia (<5000 leukocytes/μL) was seen / Adverse drug reactions on daily clinical monitoring / Clinical scores compared to calves receiving diluent only: 10 days; for Buffy coat samples virus isolation positive: Days 6-10, 20 samples per group; for Samples virus isolation positive for BVDV in total: all sample types and time points; for Nasal swab samples virus isolation positive: by Day 12, 28 samples per group; for Adverse side effects on serial complete blood cell counts or serum chemistry panels / Period in which leukopenia (<5000 leukocytes/μL) was seen / Adverse drug reactions on daily clinical monitoring: calves; for Adverse drug reactions on daily clinical monitoring: Day 0 to Day 28; for Clinical scores compared to calves receiving diluent only: composite of dehydration, appearance, appetite, diarrhea
# [5] = system: BVDV type 1 strain SD1; conditions: 2 mg/kg i.v. 3x daily
# [6] = system: MDBK cells (Madin-Darby bovine kidney); assay: Cytotoxicity in MDBK cells (no BVD virus added); conditions: MDBK cells, no virus, 50% toxic effects
# [7] = Bovine viral diarrhea virus isolates and strains, MDBK, in Bos taurus, 96 h
Structure (SMILES),CC50 at 4 days [2] [µM],"EC50 [3, 7] [µM]","SI (selectivity index, ratio of CC50 and EC50) [3]",also measured
"Cc1ccc2nc(Cn3ccc4nc(-c5cnn(C)c5C)nc-4c3)sc2c1 [CPD-1, 2-((2-(1,5-dimethyl-1H-pyrazol-4-yl)-5H-imidazo[4,5-c]pyridin-5-yl)methyl)-6-methylbenzo[d]thiazole]",231,0.013 ± 0.005,17769,EC50 [1]: 0.3 ± 0.1 µM
"Cc1c(-c2nc3ccn(Cc4cc(-c5cc(F)ccc5F)no4)cc-3n2)cnn1C [CPD-7, 3-(2,5-difluorophenyl)-5-((2-(1,5-dimethyl-1H-pyrazol-4-yl)-5H-imidazo[4,5-c]pyridin-5-yl)methyl)isoxazole]",212,0.053 ± 0.025,4000,EC50 [1]: 1.3 ± 0.5 µM; Animals showing signs of dehydration [4]: None; Buffy coat samples virus isolation positive [4]: 50%; Samples virus isolation positive for BVDV in total [4]: 28 samples; Nasal swab samples virus isolation positive [4]: 29%; Adverse side effects on serial complete blood cell counts or serum chemistry panels [4]: No evidence of adverse side effects; Period in which leukopenia (<5000 leukocytes/μL) was seen [4]: 6 to 12 days; Adverse drug reactions on daily clinical monitoring [4]: No signs of adverse drug reactions were observed; Clinical scores compared to calves receiving diluent only [4]: attenuated clinical scores
"Cc1ccc2nc(Cn3ccc4nc(-c5cn(C)nc5C)nc-4c3)sc2c1 [CPD-10, 2-((2-(1,3-dimethyl-1H-pyrazol-4-yl)-5H-imidazo[4,5-c]pyridin-5-yl)methyl)-6-methylbenzo[d]thiazole]",231,0.08 ± 0.032,2888,EC50 [1]: 4.3 ± 1.9 µM; Animals showing signs of dehydration [4]: None; Buffy coat samples virus isolation positive [4]: 55%; Samples virus isolation positive for BVDV in total [4]: 32 samples; Nasal swab samples virus isolation positive [4]: 43%; Adverse side effects on serial complete blood cell counts or serum chemistry panels [4]: No evidence of adverse side effects; Period in which leukopenia (<5000 leukocytes/μL) was seen [4]: 6 to 8 days; Adverse drug reactions on daily clinical monitoring [4]: No signs of adverse drug reactions were observed; Clinical scores compared to calves receiving diluent only [4]: attenuated clinical scores
"Cc1nc(Cn2ccc3nc(-c4ccccc4F)nc-3c2)sc1-c1ccccc1 [CPD-29, 2-((2-(2-fluorophenyl)-5H-imidazo[4,5-c]pyridin-5-yl)methyl)-4-methyl-5-phenylthiazole]",> 50,0.257 ± 0.107,>195,EC50 [1]: 2.8 ± 1.4 µM
"Fc1ccc(OC(F)(F)F)cc1-c1nc2ccn(Cn3nnc4ccccc43)cc-2n1 [CPD-40, 1-((2-(2-fluoro-5-(trifluoromethoxy)phenyl)-5H-imidazo[4,5-c]pyridin-5-yl)methyl)-1H-benzo[d][1,2,3]triazole]",48,0.089 ± 0.018,539,EC50 [1]: 5.9 µM
"Fc1ccccc1-c1cc2ccn(Cn3nnc4ccccc43)cc-2n1 [Compound I, 1-{[2-(2-fluorophenyl)-6H-pyrrolo[2,3-c]pyridin-6-yl]methyl}-1H-benzotriazole]",22,0.009 ± 0.008,2444,"Antibody titre of seroconverted calf on Day 14 ([5]; 7 days, Day 14): 16; Calves seroconverted (anti-BVDV neutralizing antibodies) by Day 14 ([5]; 7 days, Day 14 post challenge): 1 out of 5; Average anti-BVDV neutralising antibody titre on Day 28 ([5]; 7 days, Day 28): 64; Haematology and clinical chemistry versus control group ([5]; calves, 7 days, Day 0, 7, 14, 21, 28): did not reveal any difference between both treatment groups; Adverse drug reactions on daily clinical monitoring ([5]; calves, 7 days, Day 0 to Day 28): No signs of adverse drug reactions were observed; BVDV virus isolation from buffy coat samples during treatment ([5]; calves, Day 0 to Day 6): could not be detected"
"OCc1ccccc1-c1cc2ccn(Cn3nnc4ccccc43)cc-2n1 [Compound V, [2-(6-((1H-Benzotriazol)-1-yl)methyl-6H-pyrrolo[2,3-c]pyridin-2-yl)-phenyl]-methanol]",,,,"CC50 [6]: > 50 µM; EC50 ([3]; BVD virus approx. 100 TCID50, MDBK cells, four days, 50% inhibition of CPE): 0.081 ± 0.001 µM"
"COc1ccccc1-c1cc2cn(Cn3nnc4ccccc43)ccc-2n1 [Compound XX, 1-{[2-(2-methoxyphenyl)-5H-pyrrolo[3,2-c]pyridin-5-yl]methyl}-1H-benzotriazole]",39,0.082,476,
"OCc1ccccc1-c1cc2cn(Cn3nnc4ccccc43)ccc-2n1 [Compound XXI, (2-(5-((1H-Benzotriazol-1-yl)methyl)-5H-pyrrolo[3,2-c]pyridin-2-yl)phenyl)methanol]",> 50,0.387 ± 0.022,>129,
"N#Cc1ccc(-c2cc3cn(Cn4nnc5ccccc54)ccc-3n2)cc1 [Compound XXII, 4-{5-[(1H-benzotriazol-1-yl)methyl]-5H-pyrrolo[3,2-c]pyridin-2-yl}benzonitrile]",21,0.007 ± 0.005,3000,
"COc1ncccc1-c1cc2cn(Cn3nnc4ccccc43)ccc-2n1 [Compound XXIII, 1-((2-(2-methoxypyridin-3-yl)-5H-pyrrolo[3,2-c]pyridin-5-yl)methyl)-1H-benzotriazole]",32,0.082,390,
"Cc1c(-c2cc3cn(Cn4nnc5ccccc54)ccc-3n2)cnn1C [Compound XXIV, 1-((2-(1,5-dimethyl-1H-pyrazol-4-yl)-5H-pyrrolo[3,2-c]pyridin-5-yl)methyl)-1H-benzotriazole]",12,0.076 ± 0.019,158,
"Cc1ccc2nc(Cn3ccc4nc(-c5cc(OCCO)ccc5F)cc-4c3)sc2c1 [Compound XXIX, 2-(4-fluoro-3-(5-((6-methyl-1,3-benzothiazol-2-yl)methyl)-5H-pyrrolo[3,2-c]pyridin-2-yl)phenoxy)ethan-1-ol]",16,0.037 ± 0.03,432,
"Cc1ccc2oc(Cn3ccc4nc(-c5ccccc5F)cc-4c3)nc2c1 [Compound XXV, 2-{[2-(2-fluorophenyl)-5H-pyrrolo[3,2-c]pyridin-5-yl]methyl}-5-methyl-1,3-benzoxazole]",7,0.004 ± 0.002,1750,
"Cc1ccc2oc(Cn3ccc4nc(-c5ccccc5CO)cc-4c3)nc2c1 [Compound XXVI, (2-(5-((5-methyl-1,3-benzoxazol-2-yl)methyl)-5H-pyrrolo[3,2-c]pyridin-2-yl)phenyl)methanol]",22,0.311 ± 0.078,71,
"COc1ncccc1-c1cc2cn(Cc3nc4cc(C)ccc4o3)ccc-2n1 [Compound XXVII, 2-((2-(2-methoxypyridin-3-yl)-5H-pyrrolo[3,2-c]pyridin-5-yl)methyl)-5-methyl-1,3-benzoxazole]",21,0.016 ± 0.001,1313,
"Cc1ccc2nc(Cn3ccc4nc(-c5ccccc5F)cc-4c3)sc2c1 [Compound XXVIII, 2-{[2-(2-fluorophenyl)-5H-pyrrolo[3,2-c]pyridin-5-yl]methyl}-6-methyl-1,3-benzothiazole]",3,0.016,188,
"Cc1ccc2nc(Cn3ccc4nc(-c5ccccc5CO)cc-4c3)sc2c1 [Compound XXX, (2-{5-[(6-methyl-1,3-benzothiazol-2-yl)methyl]-5H-pyrrolo[3,2-c]pyridin-2-yl}phenyl)methanol]",20,0.019 ± 0.007,1053,
"COc1ncccc1-c1cc2cn(Cc3nc4ccc(C)cc4s3)ccc-2n1 [Compound XXXI, 2-{[2-(2-methoxypyridin-3-yl)-5H-pyrrolo[3,2-c]pyridin-5-yl]methyl}-6-methyl-1,3-benzothiazole]",10,0.006 ± 0.006,1667,
"Cc1ccc2nc(Cn3ccc4nc(-c5cnn(C)c5C)cc-4c3)sc2c1 [Compound XXXII, 2-{[2-(1,5-dimethyl-1H-pyrazol-4-yl)-5H-pyrrolo[3,2-c]pyridin-5-yl]methyl}-6-methyl-1,3-benzothiazole]",21,0.012 ± 0.008,1750,
"COc1ncccc1-c1cc2cn(Cc3nc4ccc(C)cc4[nH]3)ccc-2n1 [Compound XXXIV, 2-((2-(2-methoxypyridin-3-yl)-5H-pyrrolo[3,2-c]pyridin-5-yl)methyl)-6-methyl-1H-benzoimidazole]",> 50,0.395 ± 0.02,>127,
"Cc1ccc2nc(Cn3ccc4nc(-c5ccccc5CO)cc-4c3)[nH]c2c1 [XXXIII, [2-[5-[(6-methyl-1H-benzimidazol-2-yl)methyl]pyrrolo[3,2-c]pyridin-2-yl]phenyl]methanol]",> 50,1.9 ± 0.102,>26,
